Experimental data reported in patent US20110288036A1, “Methods for Treating or Preventing Vascular Graft Failure” (priority 2010, published 2011).

How the values were obtained:
P38MAPK = experiment: p38 MAPK radiometric kinase assay; type: biochemical; conditions: peptide 100 μM
From the text: A commercial radiometric assay service was used to test the specificity and potency of MMI-0100 ([…]; SEQ ID NO: 1) by measuring its half maximal inhibitory concentrations (IC50). This quantitative assay measures how much MK2 inhibitor (MMI-0100; […] (SEQ ID NO: 1)) is needed to inhibit 50% of a given biological process or component of a process (i.e., an enzyme, cell, or cell receptor). Specifically, in these assays, a positively charged substrate is phosphorylated with a radiolabeled phosphate group from an ATP if the kinase is not inhibited by an inhibitor peptide. The positively charged substrate then is attracted to a negatively charged filter membrane, quantified with a scintillation counter, and compared to a 100% activity control. […]
For the p38 MAPK (p38 Mitogen-Activated Protein Kinase) radiometric assay, 5-10 mU of p38 MAPK was incubated with 25 mM Tris pH 7.5, 0.02 mM EGTA, 0.33 mg/mL myelin basic protein (a substrate for p38 MAPK), 10 mM MgAcetate, and 10 μM of [y-^33P-ATP] in the final reaction volume of 25 μl. […] The washed P30 filtermat was dried and its radioactivity was measured by scintillation counter.
IC50 values for inhibitor peptides were determined using Millipore's IC50 Profiler Express service. […]

[1] = test system: human endothelial cell (EC); experiment: MTS cell proliferation assay, endothelial cells; type: cell-based; conditions: pre-treatment 20 ng/ml TNF-α
Description: Primary human aortic endothelial cells (HAEC) and primary human aortic smooth muscle cells (HASMC) were obtained from Invitrogen; primary human coronary artery endothelial cells (HCAEC) were obtained from Lonza.
All cultures were maintained in 25 cm^2 polystyrene tissue culture flasks in a 37° C., 5% CO2/95% air environment, with cell culture media refreshed every other day. All cells were seeded at a density of 20,000˜30,000 cells/cm^2, as required by the specific experiment, and allowed to grow to 80-90% confluence before being harvested/passaged. Only cells from early passages (numbers 2-8) were utilized in experiments.
The CellTiter 96® AQueous Non-Radioactive Cell Proliferation Assay (Promega) was used to assess drug effects on cell proliferation according to the manufacturer's instructions. Briefly, HAECs and HASMCs from early passages were grown to 80-90% confluence in 25 cm^2 tissue culture flasks in a 37° C./5% CO2 incubator prior to harvest. 200 μl of each type of cell suspension (at 20,000 cells/cm^2) was seeded onto separate 96-well plates to yield an approximate 60% confluence per well. Cells were allowed to adhere to the plate surface overnight, followed by addition of 20 ng/ml of TNF-α to stimulate production of inflammatory agents. After a 4-6 hour incubation period, MMI-0100 peptide drug ([…]; SEQ ID NO: 1) was added and cells incubated for another 20-24 hours. Each well was then supplemented with 100 μl of fresh medium and 20 μl of CellTiter 96® AQueous One Solution Reagent and incubated for an additional 1.5-2 hours prior to measuring absorbance of each well at 490 nm with a SoftMax®-equipped plate reader.
In order to determine the effect of pharmacological doses of MMI-0100 ([…]; SEQ ID NO: 1) on human endothelial cell (EC) and smooth muscle cell (SMC) proliferation, human EC and SMC cultures were treated with three concentrations (0.25 mM, 0.5 mM, and 1 mM) of MMI-0100 ([…] (SEQ ID NO: 1)) following pre-treatment with TNF-α.

## YARAAARQARAKALARQLGVAA [MMI-0100]
P38MAPK
  Percent Activity, P38MAPK: 60%
[1]; 0.25 mM
  EC proliferation vs TNF-α alone control: slightly increased cell proliferation
[1]; 0.5 mM
  increase in EC proliferation vs TNF-α alone control: 30%
[1]; 1 mM
  increase in EC proliferation vs TNF-α alone control: 11%
